{"source": "paper PMC5048659", "about": "(Arthritis Research & Therapy, 2016)", "key": {"OAT1 and OAT3": {"test_system": "OAT1 and OAT3", "details": "in vivo; cited from earlier work"}, "healthy volunteers [1]": {"test_system": "healthy volunteers", "assay": "Clinical effect on serum uric acid (phase 1 RDEA594-109)", "format": "in vivo, human", "experimental": "(§1) In each treatment period, plasma samples were collected within 30 minutes before dosing (pre-dose) and at 0.5, 1, 1.5, 2, 3, 4, 5, 6, 8, 10, 12, 16, 24, 30, 36, and 48 hours post-dose. Urine (total catch) was collected pretreatment at hours –24 to –18, –18 to –12, and –12 to 0, and post-dose at hours 0 to 6, 6 to 12, 12 to 24, 24 to 30, 30 to 36, and 36 to 48.\nSerum was collected within 30 minutes prior to drug administration, and at 6, 12, 16, 24, 30, 36, and 48 hours after dosing. Serum urate levels and PD parameters were assayed and calculated by Covance Clinical Research Unit as described above."}, "[2]": {"assay": "Lesinurad plasma pharmacokinetics and urinary excretion in the clinic", "format": "in vivo, human", "details": "single 200-mg dose", "experimental": "as §1\n(§2) After protein precipitation of the samples, lesinurad levels in plasma and urine were measured at Ardea Biosciences by quantitative high performance liquid chromatography with tandem mass spectrometry. […] The parameters from individual profiles of lesinurad were determined using noncompartmental methods. Urine samples were analyzed for uric acid and creatinine using enzymatic methods by Covance Clinical Research Unit (Dallas, TX, USA), and pharmacodynamic (PD) parameters were determined by Covance Clinical Research Unit using SAS, Version 8.2 (SAS Institute Inc). Calculated PD parameters for uric acid included urinary excretion, renal clearance, and FEUA. FEUA was calculated by dividing the uric acid clearance by the creatinine clearance."}, "healthy volunteers [3]": {"test_system": "healthy volunteers", "assay": "Clinical effect on fractional excretion of uric acid (phase 1 RDEA594-109)", "format": "in vivo, human", "details": "for Peak FEUA: within 6 hours, baseline 5.8 %", "experimental": "as §1, §2"}, "OAT3": {"test_system": "OAT3", "design": "method as in earlier work", "details": "oocytes, 2 µM 3H-estrone sulfate, 60 min; shown in Figure S1; ref 41 (Shen et al.); read-out: IC50 against OAT3; cited from earlier work"}, "OAT1": {"target": "T1, OAT1 (Homo sapiens, UniProt Q4U2R8)", "T1 construct": "host or cells: HEK-293T, transient transfection", "T1 sequence (Q4U2R8 1-563)": "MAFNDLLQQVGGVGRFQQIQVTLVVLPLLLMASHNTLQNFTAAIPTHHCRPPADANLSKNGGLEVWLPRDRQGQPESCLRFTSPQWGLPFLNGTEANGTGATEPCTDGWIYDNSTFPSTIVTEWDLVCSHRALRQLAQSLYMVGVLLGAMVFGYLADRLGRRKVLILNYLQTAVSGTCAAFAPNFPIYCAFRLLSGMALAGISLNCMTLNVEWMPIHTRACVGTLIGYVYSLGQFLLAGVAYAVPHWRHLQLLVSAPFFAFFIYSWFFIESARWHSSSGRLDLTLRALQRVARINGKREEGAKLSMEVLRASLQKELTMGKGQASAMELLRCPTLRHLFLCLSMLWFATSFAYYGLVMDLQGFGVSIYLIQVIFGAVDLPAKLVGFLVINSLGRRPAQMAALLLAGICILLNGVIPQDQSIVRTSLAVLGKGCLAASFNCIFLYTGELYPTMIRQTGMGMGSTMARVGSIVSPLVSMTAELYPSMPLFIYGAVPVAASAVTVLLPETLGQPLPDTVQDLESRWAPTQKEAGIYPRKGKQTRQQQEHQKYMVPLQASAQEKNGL", "assay": "OAT1 6-carboxyfluorescein transport in transfected HEK-293T cells", "format": "cell-based", "details": "5 μM 6-carboxyfluorescein, 2 min; mean ± SEM; read-out: Potency (IC50) against OAT1", "experimental": "The cells were washed three times in a buffer containing 125 mM NaCl and 25 mM HEPES, pH 7.3, and then lysed in 1 M sodium hydroxide prior to fluorescence measurement."}, "[4]": {"details": "cited from earlier work"}, "PPARγ": {"target": "T2, PPARγ (Homo sapiens, UniProt P37231)", "T2 sequence (P37231 238-505 limits assumed)": "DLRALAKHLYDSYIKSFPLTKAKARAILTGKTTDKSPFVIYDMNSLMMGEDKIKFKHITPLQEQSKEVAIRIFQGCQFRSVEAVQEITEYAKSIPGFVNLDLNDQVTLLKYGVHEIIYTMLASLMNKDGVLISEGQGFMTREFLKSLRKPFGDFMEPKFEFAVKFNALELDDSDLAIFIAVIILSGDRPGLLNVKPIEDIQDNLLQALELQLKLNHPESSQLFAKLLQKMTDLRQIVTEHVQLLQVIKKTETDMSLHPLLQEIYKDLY", "assay": "Human PPARγ luciferase reporter assay", "format": "cell-based", "details": "reporter cells, 24 hours, up to 100 μM", "experimental": "This assay was performed using nonhuman mammalian cells engineered to provide a PPARγ-responsive luciferase reporter gene and constitutive, high levels of PPARγ (Indigo Biosciences catalog number IB00101). Cells were incubated with compounds for 24 hours, and then luciferase activity was measured using a luminometer. Agonist activity was reported as fold activation over a vehicle control. A positive control agonist, rosiglitazone, was included in each batch run to verify cell integrity."}, "[5]": {"details": "single 200-mg dose, after 6 hours, p < 0.001"}}, "data": [{"smiles": "O=C(O)CSc1nnc(Br)n1-c1ccc(C2CC2)c2ccccc12", "note": "[Lesinurad, 2-((5-bromo-4-(4-cyclopropylnaphthalen-1-yl)-4H-1,2,4-triazol-3-yl)thio) acetic acid]", "values": [{"measurement": "Effect on renal clearance and PD of the OAT substrate furosemide", "setting": "OAT1 and OAT3", "value": "no effect"}, {"measurement": "Reduction of sUA", "setting": "healthy volunteers [1]; [5]", "value": 33, "unit": "%"}, {"measurement": "Maximum reduction of sUA", "setting": "healthy volunteers [1]; single 600-mg dose, after 6 hours", "value": 42, "unit": "%"}, {"measurement": "Reduction of sUA", "setting": "healthy volunteers [1]; single 600-mg dose, after 24 hours", "value": 31, "unit": "%"}, {"measurement": "Maximal plasma concentration", "setting": "[2]", "value": 29, "unit": "µM"}, {"measurement": "Predicted maximal plasma-free concentration", "setting": "[2]; from Cmax and 98.4 % protein binding", "value": 0.46, "unit": "µM"}, {"measurement": "EC50", "setting": "healthy volunteers [3]; Homo sapiens, single 200-, 400- or 600-mg doses, healthy volunteers, read-out: Half-maximal effective plasma concentration for elevating FEUA", "value": 13, "unit": "µM"}, {"measurement": "FEUA in some individuals with high plasma lesinurad", "setting": "healthy volunteers [3]; healthy volunteers, single doses", "value": "up to 35%"}, {"measurement": "Elevation of FEUA", "setting": "healthy volunteers [3]; [5]", "value": 3.6, "unit": "fold"}, {"measurement": "Peak FEUA", "setting": "healthy volunteers [3]; single 200-mg oral dose", "value": 21.8, "unit": "%"}, {"measurement": "Peak FEUA", "setting": "healthy volunteers [3]; single 400-mg oral dose", "value": 26.7, "unit": "%"}, {"measurement": "Peak FEUA", "setting": "healthy volunteers [3]; single 600-mg oral dose", "value": 32.3, "unit": "%"}, {"measurement": "IC50", "setting": "OAT3", "value": 3.54, "unit": "µM"}, {"measurement": "IC50", "setting": "OAT1", "value": "3.9 ± 0.94", "unit": "µM"}, {"measurement": "Fraction of compound excreted via urine", "setting": "[4]", "value": "approximately one third"}, {"measurement": "PPARγ activation", "setting": "PPARγ", "value": "no PPARγ agonism"}]}]}
